Laboratory results published in the NIST ThermoML archive (doi:10.1021/acs.jced.7b00222).
Several values for one entry are separate records, joined by “and”; a condition that tells them apart may be missing. Identical values can stand only once.

Conditions: Liquid, Optical interferometry

CO [methanol]
Conditions	thermal diffusivity
297.95 K, 5300000 kPa	2.19e-07 m2/s
298.15 K, 4220000 kPa	2.17e-07 m2/s
299.15 K, 0 kPa	9.7e-08 m2/s
299.15 K, 880000 kPa	1.59e-07 m2/s
299.15 K, 2430000 kPa	1.86e-07 m2/s
299.15 K, 3100000 kPa	1.92e-07 m2/s
299.15 K, 3120000 kPa	1.99e-07 m2/s
299.75 K, 5000000 kPa	2.37e-07 m2/s
299.85 K, 400000 kPa	1.32e-07 m2/s
300.15 K, 370000 kPa	1.35e-07 m2/s
300.75 K, 1750000 kPa	1.8e-07 m2/s
300.95 K, 860000 kPa	1.57e-07 m2/s
301.05 K, 1290000 kPa	1.7e-07 m2/s and 1.66e-07 m2/s

Conditions	thermal diffusivity [m2/s]
299.15 K	9.7e-08
